Measurements taken from patent US20120004122A1, “Diagnostic Marker for Migraine and Use Thereof” (priority 2005, published 2012).

Test system: α-fodrin gene
Assay: α-fodrin gene expression in lymphocyte-derived immortalized cells before and after drug administration (real-time PCR)
Assay type: cell-based, human
Conditions: EB virus-immortalized cells derived from lymphocytes of the migraine group and the healthy group; before vs after administration of the drug to cells in culture; FIG. 2
Excerpt: Peripheral bloods were harvested from 5 patients having an aura of migraine, as diagnosed according to the International Classification of Headache Disorders 2nd Edition (ICHD-II) of the International Headache Society as well as from 5 healthy subjects constituting a control group who are matched with the 5 patients in terms of age and sex. From the migraine subjects, their bloods were drawn during an interval between migraine attacks. Their lymphocytes were isolated by centrifugation from the peripheral bloods collected from each group.
The lymphocytes of each group were infected by adding 1 mL of EB virus supernatant (the culture supernatant of B958 cells, EB virus-producing cells) to the lymphocytes at 2×10^6 cells and 2 μL of 100-fold diluted cyclosporin solution (original solution of cyclosporin (Sandimmun 1A (5 ml) 250 mg) to the lymphocytes at 2×10^6 cells, followed by incubation in RPMI(+) medium for about four days. Then, cell lines established by continuous passaging in the same medium were used as the lymphocyte-derived immortalized cells in the present invention. These immortalized cells were used for the following experiments under the same conditions of culture condition, number of passages, etc.
Thus, the gene expression levels of α-fodrin and HPCAL1 were examined by performing quantitative real-time PCR using immortalized lymphocytes obtained from the migraine and healthy subjects as samples. […] The expression level of each gene was relatively quantified by the comparative Ct (threshold cycle) method based on the amplification curve obtained from the PCR.
Immortalized cells derived from lymphocytes of the migraine group and the healthy group were subjected to mRNA expression analysis in the same manner as described above. […] By using part of the immortalized cells before and after the administration of each drug, the expression level of α-fodrin gene was analyzed.

SMILES | expression level of α-fodrin gene
CNS(=O)(=O)Cc1ccc2[nH]cc(CCN(C)C)c2c1 [sumatriptan] | reduced the expression level of α-fodrin
CC(=O)Oc1ccccc1C(=O)O [aspirin] | reduced the expression level of α-fodrin
NC(N)=Nc1nc(CSCCC(N)=NS(N)(=O)=O)cs1 [Gaster, famotidine] | increased the expression level of α-fodrin
